Experimental data published in patent US20250115571A1, “OXOPIPERAZINE DERIVATIVES” (Inthera Bioscience AG, priority 2017, published 2025).

Tests used:
[1] = system: SiHa; assay: 5-day cell proliferation assay (CTG); type: cell-based; conditions: Homo sapiens, 120 h, Cervix
Description: (§1) For screening using a proliferation assay, the cells used were cultured at 37° C. with 5% CO2, except for those being cultured with L-15 medium (37° C. and 100% air, TABLE 7). Compound stock solutions (10 mM) were made in sterile water, aliquoted and stored at room temperature. Cisplatin was used as reference Control. Plastic consumables, culture media and supplements were purchased from well-known suppliers (TABLE 8).
(§2) Cell seeding (day −1). When necessary, cells were trypsinized using standard methods (see e.g. example 01). Cells were collected and resuspended in 5-6 mL of appropriate culture medium, counted and diluted to the needed density. Fifty-four μl (microliter) cells were seeded per well in a 384-well plate. Extra four wells per cell line were seeded on an additional plate for Day 0 reading (baseline cell density). Cells were incubated at 37° C. overnight.
(§3) Compound treatment and Day 0 reading (day 0). Tenfold final concentration of test compounds and Cisplatin were prepared in cell culture media (work dilutions). Six μl of work dilution solutions were dispensed into the corresponding wells in 384-well plates to bring the total volume up to 60 μl. Conditions were tested in triplicate. The plates were then incubated at 37° C. for five days. For the day 0 reading, 30 μl of CTG and 6 μl cell culture medium were added to the day 0 plates, contents mixed for 2 min on a plate shaker, and the plates incubated for 10 min at room temperature in the dark. Luminescence was recorded on an EnVision Multi Label Reader (2104-0010A, PerkinElmer, USA).
(§4) Endpoint CTG reading (day 5). The amounts of cells in the plates was determined by endpoint CTG-test. Thirty μl of CTG were added to the 60 μl of cell culture per well, contents mixed for 2 min on a plate shaker, and the plates incubated for 10 min at room temperature in the dark. Luminescence was recorded on an EnVision Multi Label Reader.
(§5) Data analysis. Fifty percent growth inhibition concentrations (GI50) were calculated based on percentage of control data (untreated cells) from each cell line (TABLE 5 (this example) and TABLE 6). Curves were fitted using a nonlinear regression model with a sigmoidal dose response. Examples of obtained curves are depicted in FIG. 2A-2F.

[2] = system: Hep G2; assay: 5-day cell proliferation assay (CTG); type: cell-based; conditions: Homo sapiens, HepG2, 120 h, Hep G2, Liver
Description: as §1, §2, §3, §4, §5

[3] = system: SW480; assay: 5-day cell proliferation assay (CTG); type: cell-based; conditions: Homo sapiens, 120 h, SW480, Colorectal
Description: as §1, §2, §3, §4, §5

[4] = system: Ramos; assay: 5-day cell proliferation assay (CTG); type: cell-based; conditions: Homo sapiens, 120 h, Lymphoma
Description: as §1, §2, §3, §4, §5

[5] = system: SF268; assay: 5-day cell proliferation assay (CTG); type: cell-based; conditions: Homo sapiens, SF-268, 120 h, SF268, Brain/Nerves
Description: as §1, §2, §3, §4, §5

[6] = system: Granta-519; assay: 5-day cell proliferation assay (CTG); type: cell-based; conditions: Homo sapiens, 120 h, Granta-519, Lymphoma
Description: as §1, §2, §3, §4, §5

[7] = system: IM95m; assay: 5-day cell proliferation assay (CTG); type: cell-based; conditions: Homo sapiens, 120 h, Stomach/Gastric
Description: as §1, §2, §3, §4, §5

[8] = system: KARPAS-422; assay: 5-day cell proliferation assay (CTG); type: cell-based; conditions: Homo sapiens, 120 h, KARPAS-422, Lymphoma
Description: as §1, §2, §3, §4, §5

[9] = system: SK-MEL5; assay: 5-day cell proliferation assay (CTG); type: cell-based; conditions: Homo sapiens, SK-MEL-5, 120 h, SK-MEL5, Skin
Description: as §1, §2, §3, §4, §5

[10] = system: prostate-specific antigen (PSA); assay: Serum PSA (ELISA) in the castration-resistant prostate cancer patient-derived xenograft mouse model; type: in vivo; conditions: five mice with detectable tumors; daily 10 and 3 mg/kg (two mice) or 6 mg/kg (three mice); blood 3 h after the last dose
Description: Mice from groups 1, 3 and 4 of the CPRC prostate patient-derived xenograft model (TABLE 9, EXAMPLE 322) were used to analyze serum PSA at the end of the experiment. […] PSA was detected by ELISA (Human Kallikrein 3/PSA Quantikine ELISA Kit, R&D Systems, Minneapolis, MN, USA) according to manufacturer's instructions. Minimal relative expected PSA-levels were calculated based on minimal PSA/tumor size ratio of vehicle-treated mice.

[11] = system: Vascular Endothelial Growth Factor A (VEGF); assay: Tumor VEGF protein (ELISA) in MKN45 gastric cancer cell-derived xenograft; type: in vivo, mouse; conditions: approximately 3 weeks of treatment with 3 mg/kg or 6 mg/kg, effect less evident than in HCT-116
Description: Mice from groups 1, 2, 4 and 5 of the HCT-116 colorectal cancer model (TABLE 12, EXAMPLE 324) and MKN45 gastric cancer model (TABLE 14, EXAMPLE 325) were used to analyze tumor Vascular Endothelial Growth Factor A (VEGF) protein expression at the end of the experiment. Tumors homogenates were prepared using a 2× Lysis Buffer (RayBiotech Life, Norcross, GA, USA) according to manufacturer's instructions. VEGF was quantified in 50 micrograms tumor by ELISA (Human VEGF Quantikine ELISA Kit, R&D Systems) according to manufacturer's instructions.

[12] = system: p53 protein and p53 lysine 382 acetylation in CaSki cells; assay: P53 protein reactivation in HPV16-positive cervical cancer cells (Western blot); type: cell-based, human; conditions: 72 h
Description: HPV16-positive cervical cancer cells CaSki were subcultured as described in EXAMPLE 1, seeded at a density of 20′000 cells/cm^2; and readily treated with Compound 258 for 72 hrs. For western blot analysis, cells were removed from the cell culture vessels by trypsinization, washed twice with PBS (Sigma-Aldrich), lysed with a RIPA-buffer/Protease inhibitor cocktail (Sigma-Aldrich) by shaking on ice for 30 minutes followed by sonication on ice, 20 minutes centrifugation at 16′000×g, 4° C. Lysates were mixed 1:1 with 4× Lammli Buffer (Bio-Rad) prior to loading onto a Mini-PROTEAN TGX precast 4-20% PAGE gel (Bio-Rad). Gels were run for 1 hour at 110V. Gel were transferred to a Trans-Blot Turbo Mini PVDF membrane (Bio-Rad) using a Bio-Rad Trans-Blot Turbo System according to manufacturer's instructions. Equal amounts of cells were used, and the total transferred protein visualized on a Bio-Rad ChemiDoc Touch Imager prior to incubation with the primary antibody. […] Specific antibody binding was detected with the SuperSignal West Femto Maximum Sensitivity Substrate (ThermoFisher) and visualized using a Bio-Rad ChemiDoc Touch Imager.

CC(C)C[C@@H]1NCCN([C@@H](CC(C)C)C(=O)N2CCC3(C[C@@H]2C)OCC(CN2CCCC2)CO3)C1=O (stereo partly drawn) [Compound 258, (3S)-1-[(2S)-4-methyl-1-oxo-1-[(3s,6s,8S)-8-methyl-3-(pyrrolidin-1-ylmethyl)-1,5-dioxa-9-azaspiro[5.5]undec-an-9-yl]pentan-2-yl]-3-(2-methylpropyl)piper-azin-2-one (^≠), isomer Z] showed a GI50 [1] of 52 nM, a GI50 [2] of 6 nM and a GI50 [3] of 22 nM. It also gave a GI50 [4] of 27 nM, a GI50 [5] of 30 nM and a GI50 [6] of 38 nM. It also gave a GI50 [7] of 4 nM, a GI50 [8] of 48 nM and a GI50 [9] of 51 nM. The “serum prostate-specific antigen (PSA) levels versus minimal relative expected PSA-levels” value [10] was “clear reduction”, the “tumor VEGF protein levels” value [11] was “significantly reduced” and the “concentration at which acetylation of p53 lysine 382 is detectable” value [12] was 20 nM. For the same compound, the “concentration at which induction of p53 protein above baseline is evident” value [12] was 7 nM.
